{"source": "paper PMC3720542", "about": "“Population pharmacokinetics of mefloquine, piperaquine and artemether-lumefantrine in Cambodian and Tanzanian malaria patients” (Malaria Journal, 2013)", "key": {"[1]": {"assay": "Population pharmacokinetic analysis (NONMEM) of artemether-lumefantrine and metabolites in Tanzanian malaria patients (Kibaoni)", "format": "in vivo, human", "settings": "for clearance / Vd: human, plasma, oral; for Vd: read-out: VSS (steady-state volume of distribution), population estimate for a person of 70 kg", "experimental": "Three studies have been conducted, one in Tanzania and two in Cambodia. The study profiles are described in Figure 1. The first study was performed during March to May 2008 at the Kibaoni Health Centre, Kilombero district, Morogoro region, Tanzania. […] Six AM-LF (Coartem®, Novartis Pharma, Switzerland) doses were administered at time 0, 8, […] according to body weight (see Table 1); patients were either admitted for three days or asked to come back to the health facility for each drug administration. Mothers of breastfed patients were encouraged to feed their children and patients admitted were provided with food. Patients who reported that they have not eaten within two hours to prior dose intake were instructed to eat as soon as possible. Patients were seen by the clinical officer on days 0, 1, 2, 3, 7, 14, 28, and 42. A blood sample for pharmacokinetic measurement was taken at baseline (pre-dose on day 0) and on days 1, 2, and 7 at pre-defined random times after the last dosing. At each visit, a filter paper sample and a thin and thick smear were taken, in addition to axillary temperature, respiratory rate and haemoglobin measurements (only on days 0, 28 and 42) as well as evaluation of symptoms (e.g. headache, vomiting, and diarrhea). The exact dose and time of last drug intake, body weight, height, age, sex, food intake and concomitant medications were carefully recorded. If patients suffered from concomitant illnesses they were provided with additional treatment (paracetamol, mebendazole, metronidazole, cloxacillin, amoxicillin). Samples of 2 ml of venous blood were collected on an EDTA Vacutainer and kept on ice for no longer than 6 h after withdrawal and then aliquoted into whole blood, plasma and pellet and immediately stored in liquid nitrogen or a -80°C freezer. […] The laboratory is part of the quality control system of the World-Wide Antimalarial Resistance Network (WWARN). The pharmacokinetic analysis for each drug taken separately was performed using the NONMEM computer program Version 6 (NM-TRAN version II). It uses mixed (fixed and random) effects regression to estimate population means and variances of the pharmacokinetic parameters and to identify factors that influence them. One-, two- and three-compartment pharmacokinetic models with first-order absorption, with and without absorption lag times, were compared. Additional one or two-compartments were used for anti-malarials presenting metabolite concentrations (AM and LF). The final parameters estimated were systemic clearance (CL/F), inter-compartmental clearance (Q/F), central volume of distribution (VC/F), peripheral volume of distribution (VP/F) and absorption rate constant (ka). Since no intravenous drug concentration data were available, these parameters represent apparent values. Where available, metabolite data were included into the model and metabolism rate constant from drug compartment to metabolite compartment (k23) and metabolite clearance (CLmet) were also estimated. Owing to identifiability problems, the volume of distribution of the metabolites (VM) DLF and DHA were assumed to equal LF and AM VC, respectively. […] The observed baseline residual plasma concentrations were fitted by estimating a factor (F0) that provided an estimation of the residual doses from previous treatment. […] Proportional and combined proportional-and-additive error models were compared to describe intra-patient (residual) variability for the mother compound, and if available for its metabolite using Cpij(1 + ε1ij) + ε2ij or Cmij(1 + ε3ij) + ε4ij, where Cpij are the corresponding predicted i^th drug plasma concentration and Cmij are the predicted metabolite concentration for the j^th individual, and ε1ij, ε2ij, ε3ij, ε4ij, are independent normally distributed residual error terms with a mean of zero and a variance of σ^2_1, σ^2_2, σ^2_3, σ^2_4. The covariate analysis was performed using a stepwise insertion/deletion approach. […]"}, "[2]": {"settings": "cited from earlier work"}, "[3]": {"settings": "bootstrap evaluation, 200 replicates"}, "[4]": {"settings": "present study, Tanzanian patients, sampling 7 days"}, "[5]": {"settings": "patients, age 7.7 ± 1.4 years, n 13, sampling 28 days"}, "[6]": {"settings": "patients, median age 4.0 (1–10) years, n 50, sampling 72 h"}, "[7]": {"settings": "patients, median age 22 (14–60) years, n 217"}, "[8]": {"settings": "pregnant women, median age 21 (16–35) years, n 21, sampling 10 h"}}, "note": "Where two headings read alike, the source gives them in different places. Marks after values point to notes of the source that are not given here."}
{"smiles": "CO[C@H]1O[C@@H]2O[C@@]3(C)CC[C@H]4[C@H](C)CC[C@@H]([C@H]1C)[C@@]24OO3", "note": "[Artemether, artemether]", "values": [{"measurement": "VC, bootstrap mean of 200", "setting": "[1]; [3]", "result": 133, "unit": "L/kg"}, {"measurement": "k23, bootstrap mean of 200", "setting": "[1]; [3]", "result": 5.83, "unit": "h⁻¹"}, {"measurement": "ka, bootstrap mean of 200", "setting": "[1]; [3]", "result": 0.27, "unit": "h⁻¹"}, {"measurement": "θINH, bootstrap mean of 200", "setting": "[1]; [3]", "result": "−0.27"}, {"measurement": "σC (CV%), bootstrap mean of 200", "setting": "[1]; [3]", "result": 73, "unit": "%"}, {"measurement": "decrease in CL in patients exposed to a CYP2C9 or CYP3A4 inhibitor", "setting": "[1]; concomitant treatment", "result": 70, "unit": "%"}, {"measurement": "IIV (inter-individual variability) of CL", "setting": "[1]; final model", "result": 44, "unit": "%"}, {"measurement": "IIV (inter-individual variability) of k23", "setting": "[1]; final model", "result": 68, "unit": "%"}, {"measurement": "IIV (inter-individual variability) of ka", "setting": "[1]; final model", "result": 119, "unit": "%"}, {"measurement": "ka (first-order absorption rate constant), population estimate", "setting": "[1]; final model", "result": 0.27, "unit": "h⁻¹"}, {"measurement": "σC (CV%), residual error for the central compartment, population estimate", "setting": "[1]; final model, intra-patient variability", "result": 74, "unit": "%"}, {"measurement": "k23 (metabolism rate constant), population estimate", "setting": "[1]; final model, parent to metabolite (AM to DHA, LF to DLF)", "result": 5.86, "unit": "h⁻¹"}, {"measurement": "clearance", "setting": "[1]; [4]", "result": 9970, "unit": "mL/min"}, {"measurement": "Vd", "setting": "[1]; [4]", "result": 129, "unit": "L"}, {"measurement": "CL, population estimate for a person of 70 kg", "setting": "[2]; [5]", "result": 102, "unit": "L/h"}, {"measurement": "VSS, population estimate for a person of 70 kg", "setting": "[2]; [5]", "result": 1263, "unit": "L"}, {"measurement": "CL, population estimate for a person of 70 kg", "setting": "[2]; [6]", "result": "182–700^b L/h"}, {"measurement": "VSS, population estimate for a person of 70 kg", "setting": "[2]; [6]", "result": 364, "unit": "L"}, {"measurement": "CL, population estimate for a person of 70 kg", "setting": "[2]; [7]", "result": "252^a L/h"}, {"measurement": "VSS, population estimate for a person of 70 kg", "setting": "[2]; [7]", "result": "304^a L"}, {"measurement": "CL, population estimate for a person of 70 kg", "setting": "[2]; [8]", "result": "1054^d L/h"}, {"measurement": "VSS, population estimate for a person of 70 kg", "setting": "[2]; [8]", "result": "2602^d L"}]}
{"smiles": "C[C@H]1[C@@H](O)O[C@@H]2O[C@@]3(C)CC[C@H]4[C@H](C)CC[C@@H]1[C@@]24OO3", "note": "[DHA, dihydroartemisinin]", "values": [{"measurement": "clearance", "setting": "[1]; [4]", "result": 6980, "unit": "mL/min"}, {"measurement": "Vd", "setting": "[1]; [4]", "result": 129, "unit": "L"}, {"measurement": "CL, population estimate for a person of 70 kg", "setting": "[2]; [7]", "result": "237^a L/h"}, {"measurement": "CL, population estimate for a person of 70 kg", "setting": "[2]; [8]", "result": 564, "unit": "L/h"}]}
{"smiles": "CCCCNCC(O)c1cc(Cl)cc2c1-c1ccc(Cl)cc1/C2=C/c1ccc(Cl)cc1", "note": "(centres unmarked) [DLF, desbutyl-lumefantrine]", "values": [{"measurement": "CL, population estimate for a person of 70 kg", "setting": "[1]; [4]", "result": 336, "unit": "L/h"}, {"measurement": "VSS (steady-state volume of distribution), population estimate for a person of 70 kg", "setting": "[1]; [4]", "result": "265^f L"}, {"measurement": "CL, population estimate for a person of 70 kg", "setting": "[2]; [5]", "result": 701, "unit": "L/h"}]}
